Laboratory results taken from the supplement of paper PMC13380429.
± gives the standard deviation of the averaged measurements.

Tests used:
Settings in all cases: 72 h
HepG2 [1] = assay: relative viability EC50 (midpoint between 100% and the lowest measured viability); higher = less toxic
U2OS [2] = assay: as above
Caco-2 [3] = assay: as above
Vero E6 [4] = assay: as above
Calu-3 [5] = assay: as above
HepG2 [6] = assay: cell viability relative to DMSO; higher = less toxic
U2OS [7] = assay: as above
Caco-2 [8] = assay: as above
Vero E6 [9] = assay: as above
Calu-3 [10] = assay: as above
HepG2 [11] = assay: drug sensitivity score (DSS) for viability; higher = more toxic; extreme values may be limits of the assay
U2OS [12] = assay: as above
Caco-2 [13] = assay: as above
Vero E6 [14] = assay: as above
Calu-3 [15] = assay: as above

Compound	relative viability EC50 (HepG2 [1]) [µM]	relative viability EC50 (U2OS [2]) [µM]	relative viability EC50 (Caco-2 [3]) [µM]	relative viability EC50 (Vero E6 [4]) [µM]	relative viability EC50 (Calu-3 [5]) [µM]	cell viability (HepG2 [6]; 1 nM) [%]	cell viability (HepG2 [6]; 10 nM) [%]	cell viability (HepG2 [6]; 100 nM) [%]	cell viability (HepG2 [6]; 1000 nM) [%]	cell viability (HepG2 [6]; 10000 nM) [%]	cell viability (U2OS [7]; 1 nM) [%]	cell viability (U2OS [7]; 10 nM) [%]	cell viability (U2OS [7]; 100 nM) [%]	cell viability (U2OS [7]; 1000 nM) [%]	cell viability (U2OS [7]; 10000 nM) [%]	cell viability (Caco-2 [8]; 1 nM) [%]	cell viability (Caco-2 [8]; 10 nM) [%]	cell viability (Caco-2 [8]; 100 nM) [%]	cell viability (Caco-2 [8]; 1000 nM) [%]	cell viability (Caco-2 [8]; 10000 nM) [%]	cell viability (Vero E6 [9]; 1 nM) [%]	cell viability (Vero E6 [9]; 10 nM) [%]	cell viability (Vero E6 [9]; 100 nM) [%]	cell viability (Vero E6 [9]; 1000 nM) [%]	cell viability (Vero E6 [9]; 10000 nM) [%]	cell viability (Calu-3 [10]; 1 nM) [%]	cell viability (Calu-3 [10]; 10 nM) [%]	cell viability (Calu-3 [10]; 100 nM) [%]	cell viability (Calu-3 [10]; 1000 nM) [%]	cell viability (Calu-3 [10]; 10000 nM) [%]	drug sensitivity score (HepG2 [11])	drug sensitivity score (U2OS [12])	drug sensitivity score (Caco-2 [13])	drug sensitivity score (Vero E6 [14])	drug sensitivity score (Calu-3 [15])
O=C(O)/C=C/c1ccc(O)c(O)c1 [caffeic-acid]	> 10	> 10	> 10	> 10	> 10	101	104	106	97.5	105	94	100	95.9	100	105	89	92.8	90.9	94.7	108	99.1	96.7	102	94.1	104	93.1	111	109	95	102	0	0	0	0	0
CCCCN1CCCC1CNC(=O)c1cc(C#N)c2ccccc2c1OC (stereo not given) [nafadotride]	> 10	> 10	> 10	> 10	> 10	104	103	105	97.5	96.7	98.3	101	104	101	92.2	98.8	97.6	97.4	104	102	102	96.8	105	100	92.5	102	106	87.2	105	97.1	0	0	0	0	0
C[C@@H](NC(=O)[C@@H](N)Cc1ccc(O)cc1)C(=O)NCC(=O)N(C)[C@@H](Cc1ccccc1)C(=O)N[C@H](CO)CC[S+](C)[O-] (stereo not given in full) [FK-33-824]	> 10	> 10	> 10	> 10	> 10	98.9	93.7	109	101	100	98.8	106	98.6	101	100	98	95.7	90.7	96.1	102	99.5	97.5	93.3	97	107	98.7	94.1	99.4	92.1	92.6	0	0	0	0	0
CS(=O)(=O)c1ccc(-c2cnc(NCc3ccco3)n3cnnc23)cc1 [EED226]	> 10	> 10	> 10	> 10	> 10	99.8	92.8	94.6	102	87	98.3	97.1	98.5	97.4	98	95.7	82.8	104	88.1	103	107	100	103	105	98	102	102	94.4	111	111	0.1	0	0	0	0
C[C@H](O)[C@H](O)[C@H]1CNc2nc(N)[nH]c(=O)c2N1 [sapropterin]	> 10	> 10	> 10	> 10	> 10	98.6	87.3	94.2	102	86.1	99.9	95.4	101	91.3	99.9	109	114	90.3	107	106	97.1	102	99.6	96.9	92.6	94.9	97	98.6	106	99.4	0.1	0	0	0	0
C[C@]12CC[C@H]3[C@@H](CC[C@]4(O)C[C@@H](O)CC[C@]34C=O)[C@@]1(O)CC[C@@H]2C1=CC(=O)OC1 [K-strophanthidin]	0.807	1.43	0.975	0.151	2.28	96.4	88.6	102	46.2	14.8	96.9	98.7	96.6	72.4	5.2	87.6	110	99.4	68.5	38.8	99.5	98.8	72.6	1.9	0.9	98.2	102	107	92	25.8	11.1	9.3	7.3	21.8	5.4
N[C@@H](C(=O)O)c1ccc(C(=O)O)c(C(=O)O)c1 (racemic) [3,4-DCPG-(+/-)]	> 10	> 10	> 10	> 10	> 10	88.3 ± 15	99.2 ± 3.1	89.5 ± 20	102 ± 6.3	97.7 ± 20	99.5 ± 2.4	95.4 ± 0.42	103	97.6 ± 3.8	100 ± 3.4	101 ± 5.2	94.9 ± 2.8	103 ± 3.2	96.6 ± 9.6	97.4 ± 2.9	96.8 ± 6	101 ± 3.4	96 ± 2.5	100 ± 3.2	105 ± 4.1	93.4 ± 4.4	99.8 ± 2.7	95.7 ± 3.2	93 ± 1.3	95.3 ± 1.3	0	0	0	0	0
Cc1cccc(C)c1NC(=O)CC12CCCN1CCC2 [pilsicainide]	> 10	> 10	> 10	> 10	> 10	86.5	102	90.2	99.4	91.1	96.3	92.8	99.4	94.7	102	104	83.8	95	94.7	91.9	102	98.7	99.9	100	100	106	94.6	87.8	102	94.7	0	0	0	0	0
CCCCCCCCCCC[C@@H](C[C@@H]1OC(=O)[C@H]1CCCCCC)OC(=O)[C@H](CC(C)C)NC=O [orlistat]	> 10	> 10	> 10	> 10	> 10	104	106	108	96.7	100	96	97.2	92.6	105	105	111	98.5	99.9	99	94.9	96.2	98.2	89.9	82.8	102	103	97.4	110	102	103	0	0	0	0	0
C[N+]1([O-])[C@@H]2C[C@@H](OC(=O)[C@H](CO)c3ccccc3)C[C@H]1[C@@H]1O[C@@H]12 (stereo not given in full) [scopolamine-N-oxide]	> 10	> 10	> 10	> 10	> 10	105	93.1	107	107	108	93.9	96.5	93.9	98.5	104	88.4	97.6	85.9	96.6	102	93.1	83.9	104	97.4	107	99.7	95.4	100	102	94.5	0	0	0	0	0
O=C(Nc1ccccc1-c1cn2c(CN3CCNCC3)csc2n1)c1cnc2ccccc2n1 [SRT1720]	2.47	3.3	3.05	2.72	3.3	94	94.4	102	91.6	0.3	102	99.7	98.1	102	0.2	88.6	93.3	99.7	98.4	5.4	98.2	97.7	97.7	94.3	0.1	102	101	103	102	0.9	6.9	5.4	5.5	6.4	5.3
Cc1cc(-c2nncc3c(C(C)(C)C)c(OCc4ncnn4C)nn23)no1 [MRK-016]	> 10	> 10	> 10	> 10	> 10	105	94.9	104	98.1	96.8	101	104	99.1	101	102	97.7	104	96.6	89	97.2	100	102	98.5	97.6	94.5	104	111	108	93.9	100	0	0	0	0	0
Clc1ccc(C(OCCN2CCCCC2)c2ccccc2)cc1 (stereo not given) [cloperastine]	> 10	> 10	> 10	> 10	> 10	111	109	115	96.4	84.1	99.4	96.7	97.1	99.6	95.4	99	94.9	114	116	79.9	93.7	96.4	100	97	86.6	101	93.5	129	100	100	0.6	0	0.3	0.3	0
CCCc1nc2c(C)cc(-c3nc4ccccc4n3C)cc2n1Cc1ccc(-c2ccccc2C(=O)O)cc1 [telmisartan]	> 10	> 10	> 10	> 10	> 10	94.2	95.1	103	99.8	111	97.3	105	97.5	98.9	98.6	89.5	97.3	90.7	90.6	87.5	100	95.9	96	92.9	96.6	92.9	97.9	102	102	108	0	0	0	0	0
